Columns and labels:
[1] = mice, daily injections of 25 mg/kg i.p.; cited from earlier work
brain endothelial cells = assay: Adhesion of peripheral lymph node T-lymphocytes to brain endothelia; format: cell-based, rat; conditions: 10 μM
Experimental: (§1) The immortalised Lewis rat brain endothelial cell line GP8/3.9 (Greenwood et al., 1996) was maintained in Ham's F-10 medium supplemented with 17.5% FCS, 7.5 μg/ml endothelial cell growth supplement, 80 μg/ml heparin, 2 mM glutamine, 0.5 μg/ml vitamin C, 100 U/ml penicillin and 100 μg/ml streptomycin.
Adhesion assays were carried out as previously described (Pryce et. al., 1994; Adamson et al., 1999). Briefly, peripheral lymph node-derived cells (PLNC) were isolated and T-lymphocytes obtained after purification on nylon wool columns. These cells which represent non-antigen activated T-lymphocytes are therefore non-migratory but highly adhesive when activated with the mitogen concanavalin A (Pryce et al., 1994, Greenwood and Calder 1993; Male et al., 1994 ). PLNC were activated for 24 h with type V concanavalin A, washed twice in HBSS, and cells labelled with 3 μCi [^3H]-deoxy glucose per 10^6 cells in HBSS for 90 min at 37° C. After washing the cells three times with HBSS they were resuspended in RPMI 1640 medium containing 10% FCS. Endothelial monolayers grown on 96 well plates were prepared by removing the culture medium and washing the cells four times with HBSS. 200 μl of [^3H]-labelled PLNC at a concentration of 1×10^6/ml were then added to each well and incubated at 37° C. for 1.5 h. In each assay, β-emissions from each of 6 replicate blank wells were determined to provide a value for the total amount of radioactivity added per well and to allow calculation of the specific activity of the cells. After incubation, non-adherent cells were removed with four separate washes from the four poles of the well with 37° C. HBSS as previously described (Pryce et al, 1994: Adamson et al., 1999). Adherent PLNC were lysed with 2% SDS, the lysate removed, scintillant added and radioactivity quantitated by spectrometry. Results are expressed as the means±SEM between groups determined by Student's t-test.

[2] = system: brain endothelial cell monolayers (GP8/3.9); assay: T-lymphocyte transendothelial migration through brain endothelial cell monolayers; format: cell-based, rat
Experimental: as §1
Lewis rat T-lymphocyte cell lines specific for purified myelin basic protein were prepared as previously described (Pryce et al, 1997). Briefly, lymph nodes were collected from bovine MBP-immunised rats and the T-lymphocytes propagated by periodically alternating antigen activation with IL-2 stimulation. The cell lines express the marker of the CD4^+ T cell subset, are CD45RC^low and recognise MBP in the molecular context of MHC class II determinants (Pryce et al, 1997).
The ability of the immortalised cells to support the transendothelial migration of antigen specific T-lymphocytes was determined using a well-characterised assay as described extensively elsewhere (Adamson et al., 1999 and http://www.ucl.ac.uk/ioo/video/ sequence.avi) Briefly, T-lymphocytes were added (2×10^5 cells/well) to 24 well plates containing endothelial cell monolayers. Lymphocytes were allowed to settle and migrate over a 4 h period. To evaluate the level of migration co-cultures were placed on the stage of a phase-contrast inverted microscope housed in a temperature controlled (37° C.), 5% CO2 gassed chamber (Zeiss, Herts, U.K.). A 200×200 μm field was randomly chosen and recorded for 10 min spanning the 4 h time point using a camera linked to a time-lapse video recorder. Recordings were replayed at 160× normal speed and lymphocytes identified and counted which had either adhered to the surface of the monolayer or that had migrated through the monolayer. Lymphocytes on the surface of the monolayer were identified by their highly refractive morphology (phase-bright) and rounded or partially spread appearance. In contrast cells that had migrated through the monolayer were phase-dark, highly attenuated and were seen to probe under the endothelial cells in a distinctive manner (Pryce et al, 1997; Adamson et al, 1999: Etienne et al, 2000). All other data were expressed as a percentage of the control migrations. A minimum of three independent experiments using a minimum of 6 wells per assay were performed. The results are expressed as the means±SEM and significant differences between groups determined by Student±s t-test.

Rho protein = Rho protein association with brain endothelial cell membranes (Western blot); format: cell-based, rat; conditions: C3-transferase treatment of brain endothelial cells
Experimental: as §1
Ice-cold lysis buffer containing 10 mM Tris-HCl pH7.5, 5 mM MgCl2, 1 mM DTT and 1 mM PMSF was added to cells and incubated on ice for 10 min. Cells were subsequently homogenised and centrifuged at 5000 g for 10 min to remove nuclei. Supernatants were then centrifuged at 100,000 g in a Beckman Ultracentrifuge for 30 min to obtain crude membranes. Membrane pellets were washed with buffer containing 50 mM Tris-HCl pH7.5, 50 mM NaCl, 5 mM MgCl2, 1 mM DTT and 1 mM PMSF and re-centrifuged at 100,000 g for 30 min. Membrane pellets were then resuspended in sample buffer and proteins resolved on 12.5% SDS-PAGE gels. Proteins were electroblotted on nitrocellulose membranes and immunblotted with anti-Rho polyclonal antibody (Santa Cruz, Wilts, UK). Rho proteins within membrane fractions were visualised following incubation with a 1:15,000 dilution of goat anti-rabbit-HRP (Pierce, Chester, UK) and ECL development (Amersham, Bucks,UK).
Isoprenylation of Rho proteins are essential for their efficient association with cell membranes (Adamson et al, 1992).

[3] = 24 h treatment plus 90 min adhesion assay
[4] = 48 h treatment plus 90 min adhesion assay
[5] = 10 μM, brain EC treated 24 h prior to and during 4 h co-culture, mean±SEM
[6] = 10 μM, brain EC treated 48 h prior to and during 4 h co-culture, mean±SEM

| Molecule | time required to obtain steady state plasma concentrations [1] [days] | T-lymphocyte adhesion to brain endothelial cells (brain endothelial cells; [3]) | T-lymphocyte adhesion to brain endothelial cells (brain endothelial cells; [4]) | transendothelial lymphocyte migration [2, 5] | transendothelial lymphocyte migration [2, 6] | transendothelial lymphocyte migration ([2]; C3 transferase treatment of brain EC, n=12) | subcellular distribution of Rho proteins (Rho protein) |
| --- | --- | --- | --- | --- | --- | --- | --- |
| COC(=O)[C@H](CCSC)NC(=O)c1ccc(NC[C@@H](N)CS)cc1-c1ccccc1 [FTI-277] | 3 | did not have any significant effect | did not have any significant effect | did not result in a significant alteration | 77.7±4.9 % of control migration |  |  |
| C3 transferase |  |  |  |  |  | 18.4±4.1 % of control values | did not affect |
| COC(=O)[C@H](CC(C)C)NC(=O)c1ccc(NC[C@@H](N)CS)cc1-c1cccc2ccccc12 [GGTI-298] |  | did not have any significant effect | did not have any significant effect | 73.5±6.0 % of control migration | 51.6±3.1 % of control migration |  |  |
